Test results from publication PMC5727211, “Development of Erasin: a chromone-based STAT3 inhibitor which induces apoptosis in Erlotinib-resistant lung cancer cells” (Scientific Reports, 2017).
Entries after “also recorded” stand apart in the source; their conditions may differ.

Legend:
[1] = test system: Erlotinib-resistant HCC-827 cells; test: Apoptosis assay (Annexin V/7-AAD flow cytometry), Erlotinib-resistant HCC-827 cells; type: cell-based, human; settings: 24 h
Protocol: Afterwards, the cell culture supernatant from each well was collected. […] The supernatants were then returned to each well to neutralize the Accutase solution and the cells were centrifuged at 3000 rpm, at 4 °C for 5 min. The cell pellets were washed twice with cold PBS and centrifuged again. […] Cells were resuspended in 1 x binding buffer and incubated with PE Annexin V and 7-AAD at 4 °C for 30 min. Apoptosis was measured using an LSR II flow cytometer (BD Bioscience). Experiments were carried out in at least triplicate. […]

parental HCC-827 cells = test: Apoptosis assay (Annexin V/7-AAD flow cytometry), parental HCC-827 cells; type: cell-based, human; settings: 24 h
Protocol: Afterwards, the cell culture supernatant from each well was collected. […] The supernatants were then returned to each well to neutralize the Accutase solution and the cells were centrifuged at 3000 rpm, at 4 °C for 5 min. The cell pellets were washed twice with cold PBS and centrifuged again. […] Cells were resuspended in 1 x binding buffer and incubated with PE Annexin V and 7-AAD at 4 °C for 30 min. Apoptosis was measured using an LSR II flow cytometer (BD Bioscience). Experiments were carried out in at least triplicate.

MDA-MB-453 cells = test: Apoptosis assay (Annexin V/7-AAD flow cytometry), MDA-MB-453 cells; type: cell-based, human; settings: 24 h
Protocol: (§1) MDA-MB-453 cells (3 × 10^5 cells per well), MDA-MB-231 cells (2 × 10^5 cells per well), parental HCC-827 or Erlotinib-resistant HCC-827 cells (both 2.5 × 10^5 cells per well) were seeded in 24-well tissue culture plates (Corning #3524) and treated with test compound or DMSO (final DMSO concentration: 0.2%) for 24 h. Afterwards, the cell culture supernatant from each well was collected. Cells were washed twice with warm PBS and incubated with Accutase (BD Bioscience #561527) at 37 °C for 10 min. The supernatants were then returned to each well to neutralize the Accutase solution and the cells were centrifuged at 3000 rpm, at 4 °C for 5 min. The cell pellets were washed twice with cold PBS and centrifuged again. PE Annexin V Apoptosis Detection Kit I (BD Bioscience, 559763) was used for cell staining. Cells were resuspended in 1 x binding buffer and incubated with PE Annexin V and 7-AAD at 4 °C for 30 min. Apoptosis was measured using an LSR II flow cytometer (BD Bioscience). Experiments were carried out in at least triplicate.

MDA-MB-231 cells = test: Apoptosis assay (Annexin V/7-AAD flow cytometry), MDA-MB-231 cells; type: cell-based, human; settings: 24 h
Protocol: as §1

Lck SH2 = target: T1, Lck SH2 (Homo sapiens, UniProt P06239); test: FP-based competitive binding assay, Lck SH2 domain; settings: at 80 µM
T1 construct: STAT1: 400 nM, STAT3: 210 nM, STAT5b: 300 nM, Lck SH2: 35 nM
T1 sequence (P06239 127-224 limits assumed): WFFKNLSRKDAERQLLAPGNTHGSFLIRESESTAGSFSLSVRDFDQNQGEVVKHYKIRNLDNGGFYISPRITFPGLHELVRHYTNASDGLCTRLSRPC
Protocol: (§2) The STAT family display a high degree of homology. […] Vilsmeyer-Haack formylation of 2-hydroxy acetophenones led to 3-formyl chromones, which were subsequently converted to the acyl hydrazones by reaction with hydrazides (Fig. 1). The target molecules were tested for their abilities to inhibit binding of fluorophore-labeled peptides to the SH2 domains of STAT1[24], STAT3[25], and STAT5b[26] in assays based on fluorescence polarization (FP). The more distantly related SH2 domain of the tyrosine kinase Lck served as additional specificity control[27],[28].
(§3) Assays were performed essentially as described. In brief, protein was incubated with the test compounds for 1 h at room temperature at the following protein concentrations: STAT1: 400 nM, STAT3: 210 nM, STAT5b: 300 nM, Lck SH2: 35 nM. Subsequently, the corresponding fluorophore-labeled peptide was added: STAT1: (5-carboxyfluorescein)-GpYDKPHVL-OH, derived from the interferon-γ receptor[24]; STAT3: (5-carboxyfluorescein)-GpYLPQTV-NH2, derived from the gp130 subunit of the IL-6 receptor[25]; STAT5b: (5-carboxyfluorescein)-GpYLVLDKW-OH, derived from the erythropoietin receptor[26]; Lck SH2: (5-carboxyfluorescein)-GpYEEIP-OH, derived from the middle-T antigen. After a further hour of incubation, fluorescence polarization was measured in a plate reader (Tecan Infinite F500). Apparent IC50 data shown in Tables 1, 2, and S1 and the inhibition curves shown in Fig. 2a correspond to this time point. The majority of the pipetting work was carried out using a Biomek FXp workstation (Beckman-Coulter). Buffer composition: 10 mM Tris pH 8.0, 50 mM NaCl, 1 mM EDTA, 1 mM dithiothreitol (DTT), 0.1% Nonidet P-40, and 2% DMSO.
Supplementary Figures and Table
No Structure app. IC50 [µM] or
Supplementary Table S1: Activities of test compounds in fluorescence polarization assays against the
SH2 domains of Lck. See the Supporting Methods for details. […]

STAT1 SH2 domain = target: T2, STAT1 SH2 domain (Homo sapiens, UniProt P42224); test: FP-based competitive binding assay, STAT1 SH2 domain; settings: mean ± s.d., three experiments
T2 sequence (P42224 1-750): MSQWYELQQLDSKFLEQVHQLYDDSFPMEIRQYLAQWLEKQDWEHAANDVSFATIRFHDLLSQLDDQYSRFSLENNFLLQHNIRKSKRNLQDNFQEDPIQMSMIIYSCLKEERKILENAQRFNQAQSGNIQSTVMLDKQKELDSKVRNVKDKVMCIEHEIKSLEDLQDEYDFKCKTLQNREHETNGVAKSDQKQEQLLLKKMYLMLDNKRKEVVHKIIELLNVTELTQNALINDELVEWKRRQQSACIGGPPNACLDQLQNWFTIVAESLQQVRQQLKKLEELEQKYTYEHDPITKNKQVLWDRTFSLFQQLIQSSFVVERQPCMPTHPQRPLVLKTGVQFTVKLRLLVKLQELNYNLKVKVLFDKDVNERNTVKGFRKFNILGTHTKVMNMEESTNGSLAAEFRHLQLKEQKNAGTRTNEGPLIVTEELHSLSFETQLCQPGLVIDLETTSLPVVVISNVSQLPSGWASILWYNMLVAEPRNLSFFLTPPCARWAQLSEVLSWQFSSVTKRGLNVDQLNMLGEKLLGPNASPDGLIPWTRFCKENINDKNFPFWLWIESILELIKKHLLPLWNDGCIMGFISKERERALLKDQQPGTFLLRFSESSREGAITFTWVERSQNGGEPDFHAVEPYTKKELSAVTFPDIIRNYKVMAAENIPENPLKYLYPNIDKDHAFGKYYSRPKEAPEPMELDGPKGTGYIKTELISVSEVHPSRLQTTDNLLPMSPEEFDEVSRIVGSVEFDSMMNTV
Protocol: as §2, §3

| SMILES | increase in rate of apoptosis relative to DMSO control [1] | increase in rate of apoptosis relative to DMSO control (parental HCC-827 cells) | increase in rate of apoptosis relative to DMSO control (MDA-MB-453 cells) | increase in rate of apoptosis relative to DMSO control (MDA-MB-231 cells) | Lck inhibition (Lck SH2) | inhibition at 80 µM (STAT1 SH2 domain; at 80 µM) [%] | IC50 (STAT1 SH2 domain; 1 h with protein, then 1 h with peptide, read-out: STAT1 app. IC50) [µM] |
| --- | --- | --- | --- | --- | --- | --- | --- |
| CCC(C)(C)c1ccc2occ(/C=N/NC(=O)c3cccnc3)c(=O)c2c1 [Compound 9] | did not increase the apoptotic rate | did not significantly increase apoptosis; also recorded: did not increase the apoptotic rate | did not significantly increase apoptosis | did not significantly increase apoptosis | no inhibition | 36 ± 4 |  |
| CC(C)(C)c1ccc2occ(/C=N/NC(=O)c3cccnc3)c(=O)c2c1 [Compound 8] | equally effective | up to four-fold increase | did not show an increase | up to three-fold increase | no inhibition |  | 24 ± 4 |
